# ChEMBL document CHEMBL3596129, “Osthol and curcumin as inhibitors of human Pgp and multidrug efflux pumps of Staphylococcus aureus: reversing the resistance against frontline antibacterial drugs” (Medchemcomm, 2014)
# What was measured:
# [1] = target: T1, ATP-dependent translocase ABCB1 (Homo sapiens, UniProt P08183); assay: Inhibition of P-gp in human LS180 cells at 50 uM after 90 mins by rhodamine123 cell exclusion method; type: cell-based; settings: ls180, 1.5 h
# [2] = system: Staphylococcus aureus; assay: Inhibition of TetK overexpressed in Staphylococcus aureus K2192 assessed as tetracycline MIC at 3.12 uM after 24 hrs by broth checkerboard method (reference value: 32 ug/ml)
# [3] = system: Staphylococcus aureus; assay: Inhibition of TetK overexpressed in Staphylococcus aureus K2192 assessed as decrease in tetracycline MIC at 3.12 uM after 24 hrs by broth checkerboard method relative to control
# [4] = system: Staphylococcus aureus; assay: Inhibition of MsrA overexpressed in Staphylococcus aureus K2191 assessed as erythromycin MIC at 3.12 uM after 24 hrs by broth checkerboard method (reference value: 64 ug/ml)
# [5] = system: Staphylococcus aureus; assay: Inhibition of MsrA overexpressed in Staphylococcus aureus K2191 assessed as decrease in erythromycin MIC at 3.12 uM after 24 hrs by broth checkerboard method relative to control
# [6] = target: T2, Quinolone resistance protein NorA (Staphylococcus aureus) (UniProt P0A0J7); assay: Inhibition of NorA overexpressed in Staphylococcus aureus SA1199B assessed as decrease in ciprofloxacin MIC at 3.12 uM after 24 hrs by broth checkerboard method relative to control
# T2 sequence (whole entry): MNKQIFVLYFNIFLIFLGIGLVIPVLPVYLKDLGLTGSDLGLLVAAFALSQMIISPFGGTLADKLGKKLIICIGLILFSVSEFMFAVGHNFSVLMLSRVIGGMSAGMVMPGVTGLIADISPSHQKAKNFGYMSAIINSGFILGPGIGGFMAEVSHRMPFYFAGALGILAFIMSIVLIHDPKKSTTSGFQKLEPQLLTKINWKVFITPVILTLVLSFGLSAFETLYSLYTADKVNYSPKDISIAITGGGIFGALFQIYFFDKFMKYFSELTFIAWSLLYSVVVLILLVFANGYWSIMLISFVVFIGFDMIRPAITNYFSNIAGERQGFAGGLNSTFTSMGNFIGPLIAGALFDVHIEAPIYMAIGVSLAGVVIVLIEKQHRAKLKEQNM
# [7] = target: T3, Fluoroquinolone resistance protein (Staphylococcus aureus) (UniProt A0A0C5K5S3); assay: Inhibition of MdeA overexpressed in Staphylococcus aureus Mupr-1 assessed as mupirocin MIC at 3.12 uM after 24 hrs by broth checkerboard method (reference value: 256 ug/ml)
# T3 sequence (whole entry): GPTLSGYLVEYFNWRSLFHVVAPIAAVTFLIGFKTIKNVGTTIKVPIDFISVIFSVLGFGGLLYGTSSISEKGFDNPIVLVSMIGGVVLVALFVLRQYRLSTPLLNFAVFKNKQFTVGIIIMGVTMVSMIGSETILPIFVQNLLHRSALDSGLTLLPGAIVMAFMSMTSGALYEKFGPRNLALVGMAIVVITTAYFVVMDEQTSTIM
# [8] = target: T3, Fluoroquinolone resistance protein (Staphylococcus aureus); assay: Inhibition of MdeA overexpressed in Staphylococcus aureus Mupr-1 assessed as decrease in mupirocin MIC at 3.12 uM after 24 hrs by broth checkerboard method relative to control
# [9] = target: T2, Quinolone resistance protein NorA (Staphylococcus aureus); assay: Inhibition of NorA overexpressed in Staphylococcus aureus SA1199B assessed as ciprofloxacin MIC at 3.12 uM after 24 hrs by broth checkerboard method (reference value: 8 ug/ml)
# [10] = target: CYP2D6 (Homo sapiens, UniProt P10635); assay: Inhibition of human CYP2D6 at 10 uM preincubated for 10 mins with cofactor followed by mixture of enzyme-substrate addition by fluorescence assay relative to control; type: ADME
# [11] = target: T1, ATP-dependent translocase ABCB1; assay: Inhibition of P-gp in human LS180 cells after 90 mins by rhodamine123 cell exclusion method; type: cell-based
# [12] = system: Staphylococcus aureus; assay: Inhibition of MsrA overexpressed in Staphylococcus aureus K2191 assessed as erythromycin MIC at 25 uM after 24 hrs by broth checkerboard method (reference value: 64 ug/ml)
# [13] = target: T3, Fluoroquinolone resistance protein (Staphylococcus aureus); assay: Inhibition of MdeA overexpressed in Staphylococcus aureus Mupr-1 assessed as mupirocin MIC at 25 uM after 24 hrs by broth checkerboard method (reference value: 256 ug/ml)
# [14] = target: CYP3A4 (Homo sapiens, UniProt P08684); assay: Inhibition of human CYP3A4 at 10 uM preincubated for 10 mins with cofactor followed by mixture of enzyme-substrate addition by fluorescence assay relative to control; type: ADME
# [15] = target: CYP2C19 (Homo sapiens, UniProt P33261); assay: Inhibition of human CYP2C19 at 10 uM preincubated for 10 mins with cofactor followed by mixture of enzyme-substrate addition by fluorescence assay relative to control; type: ADME
# [16] = system: P-gp; assay: Substrate activity at P-gp in human Caco2 cells assessed as apparent permeability across basolateral to apical side at 10 uM after 90 mins by HPLC with mass spectrometric method; type: ADME, cell-based; settings: Caco-2
# [17] = system: Staphylococcus aureus; assay: Inhibition of TetK overexpressed in Staphylococcus aureus K2192 assessed as tetracycline MIC at 25 uM after 24 hrs by broth checkerboard method (reference value: 32 ug/ml)
# [18] = target: T2, Quinolone resistance protein NorA (Staphylococcus aureus); assay: Inhibition of NorA overexpressed in Staphylococcus aureus SA1199B assessed as decrease in ciprofloxacin MIC at 25 uM after 24 hrs by broth checkerboard method relative to control
# [19] = target: T3, Fluoroquinolone resistance protein (Staphylococcus aureus); assay: Inhibition of MdeA overexpressed in Staphylococcus aureus Mupr-1 assessed as decrease in mupirocin MIC at 25 uM after 24 hrs by broth checkerboard method relative to control
# [20] = target: T2, Quinolone resistance protein NorA (Staphylococcus aureus); assay: Inhibition of NorA overexpressed in Staphylococcus aureus SA1199B assessed as ciprofloxacin MIC at 25 uM after 24 hrs by broth checkerboard method (reference value: 8 ug/ml)
# [21] = system: Staphylococcus aureus; assay: Inhibition of MsrA overexpressed in Staphylococcus aureus K2191 assessed as decrease in erythromycin MIC at 25 uM after 24 hrs by broth checkerboard method relative to control
# [22] = system: P-gp; assay: Substrate activity at P-gp in human Caco2 cells assessed as apparent permeability across apical to basolateral side at 10 uM after 90 mins by HPLC with mass spectrometric method; type: ADME, cell-based; settings: Caco-2
# [23] = system: P-gp; assay: Substrate activity at P-gp in human Caco2 cells assessed as efflux ratio of apparent permeability across basolateral to apical side over apical to basolateral side at 10 uM after 90 mins by HPLC with mass spectrometric method; type: ADME, cell-based; settings: Caco-2
# [24] = target: CYP2C9 (Homo sapiens, UniProt P11712); assay: Inhibition of human CYP2C9 at 10 uM preincubated for 10 mins with cofactor followed by mixture of enzyme-substrate addition by fluorescence assay relative to control; type: ADME
# [25] = system: Staphylococcus aureus; assay: Inhibition of TetK overexpressed in Staphylococcus aureus K2192 assessed as decrease in tetracycline MIC at 25 uM after 24 hrs by broth checkerboard method relative to control
# Chain of CYP2C9 (P11712 whole entry): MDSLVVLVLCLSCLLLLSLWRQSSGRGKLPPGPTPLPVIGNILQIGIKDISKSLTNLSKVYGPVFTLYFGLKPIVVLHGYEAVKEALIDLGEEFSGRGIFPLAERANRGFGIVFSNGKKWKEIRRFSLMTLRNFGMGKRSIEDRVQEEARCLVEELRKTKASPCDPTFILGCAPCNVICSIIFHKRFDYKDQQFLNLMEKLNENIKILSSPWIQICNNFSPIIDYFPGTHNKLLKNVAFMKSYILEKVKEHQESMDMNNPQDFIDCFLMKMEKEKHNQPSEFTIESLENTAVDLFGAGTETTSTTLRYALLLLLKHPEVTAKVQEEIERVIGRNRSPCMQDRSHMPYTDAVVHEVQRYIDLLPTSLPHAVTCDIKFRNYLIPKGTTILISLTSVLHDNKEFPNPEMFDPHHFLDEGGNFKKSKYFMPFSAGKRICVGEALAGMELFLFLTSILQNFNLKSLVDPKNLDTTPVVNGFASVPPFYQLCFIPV
# Chain of CYP2D6 (P10635 whole entry): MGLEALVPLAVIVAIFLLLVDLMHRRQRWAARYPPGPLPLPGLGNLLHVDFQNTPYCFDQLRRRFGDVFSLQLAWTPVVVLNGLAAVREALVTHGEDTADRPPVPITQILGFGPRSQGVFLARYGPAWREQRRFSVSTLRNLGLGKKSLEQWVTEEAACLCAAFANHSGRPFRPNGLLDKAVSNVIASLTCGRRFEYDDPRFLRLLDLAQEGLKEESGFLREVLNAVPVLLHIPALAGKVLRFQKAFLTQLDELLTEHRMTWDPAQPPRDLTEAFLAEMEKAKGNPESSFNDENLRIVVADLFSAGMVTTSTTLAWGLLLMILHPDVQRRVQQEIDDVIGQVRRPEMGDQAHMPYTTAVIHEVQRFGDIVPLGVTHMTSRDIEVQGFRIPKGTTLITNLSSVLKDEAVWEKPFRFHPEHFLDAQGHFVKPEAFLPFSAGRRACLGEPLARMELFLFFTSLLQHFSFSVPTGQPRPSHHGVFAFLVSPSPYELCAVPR
# Chain of CYP2C19 (P33261 whole entry): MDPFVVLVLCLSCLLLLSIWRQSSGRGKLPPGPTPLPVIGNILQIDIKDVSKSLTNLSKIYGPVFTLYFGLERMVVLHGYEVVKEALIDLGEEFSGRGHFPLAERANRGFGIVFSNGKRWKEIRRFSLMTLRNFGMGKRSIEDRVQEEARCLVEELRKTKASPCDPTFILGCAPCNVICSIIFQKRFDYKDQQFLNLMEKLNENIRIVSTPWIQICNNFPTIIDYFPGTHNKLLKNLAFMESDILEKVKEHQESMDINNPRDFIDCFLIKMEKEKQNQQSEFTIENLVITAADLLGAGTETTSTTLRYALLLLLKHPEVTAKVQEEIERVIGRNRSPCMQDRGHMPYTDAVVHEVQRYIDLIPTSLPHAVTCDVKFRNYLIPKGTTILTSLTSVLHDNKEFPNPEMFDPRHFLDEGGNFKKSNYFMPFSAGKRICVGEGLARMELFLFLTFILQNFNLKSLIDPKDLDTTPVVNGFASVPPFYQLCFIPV
# Chain of CYP3A4 (P08684 whole entry): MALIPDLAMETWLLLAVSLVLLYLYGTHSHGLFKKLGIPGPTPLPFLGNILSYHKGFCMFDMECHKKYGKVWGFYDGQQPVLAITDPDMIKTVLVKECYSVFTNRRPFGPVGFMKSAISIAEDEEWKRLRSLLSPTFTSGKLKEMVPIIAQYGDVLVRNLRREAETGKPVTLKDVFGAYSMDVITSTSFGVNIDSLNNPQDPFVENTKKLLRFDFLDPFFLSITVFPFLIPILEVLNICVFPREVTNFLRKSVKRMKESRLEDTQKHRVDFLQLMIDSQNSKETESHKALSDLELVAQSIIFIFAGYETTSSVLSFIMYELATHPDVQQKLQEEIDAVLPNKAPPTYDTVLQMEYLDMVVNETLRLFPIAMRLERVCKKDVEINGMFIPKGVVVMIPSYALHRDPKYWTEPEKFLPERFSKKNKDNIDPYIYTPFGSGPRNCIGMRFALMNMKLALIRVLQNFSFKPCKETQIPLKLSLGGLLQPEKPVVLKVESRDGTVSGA
smiles,measurement,setting,value
CC(=O)c1c(O)c(C)c(O)c(Cc2c3c(c(O)c4c2OC(c2ccccc2)CC4=O)C=CC(C)(C)O3)c1O (stereo unspecified),inhibition (INH),[1],Not Active
same,MIC,[2],32 µg/mL
same,fold change (FC),[3],0
same,MIC,[4],64 µg/mL
same,fold change (FC),[5],0
same,fold change (FC),[6],4
same,MIC,[7],256 µg/mL
same,fold change (FC),[8],0
same,MIC,[9],2 µg/mL
COc1ccc2ccc(=O)oc2c1CC=C(C)C [OSTHOLE],inhibition (INH),[1],Not Active
same,inhibition at 10 µM,[10],60.5%
same,IC50,[11],34 µM
same,MIC,[12],64 µg/mL
same,MIC,[13],256 µg/mL
same,inhibition at 10 µM,[14],27.3%
same,inhibition at 10 µM,[15],56.5%
same,"Papp B→A at 1.5 h, 10 µM",[16],35 ×10⁻⁶ cm/s
same,MIC,[17],16 µg/mL
same,fold change (FC),[18],4
same,fold change (FC),[19],0
same,MIC,[20],2 µg/mL
same,fold change (FC),[21],0
same,"Papp A→B at 1.5 h, 10 µM",[22],26 ×10⁻⁶ cm/s
same,"efflux ratio at 1.5 h, 10 µM",[23],1.3
same,inhibition at 10 µM,[24],39.8%
same,fold change (FC),[25],2
